Source: the supplement of paper PMC4862054

Key:
BT-474 = assay: drug sensitivity score (DSS), CellTox Green (DSS (AUC-based score)); higher = stronger drug effect (viability inhibition or cytotoxicity); extreme values may be limits of the assay; conditions: incubation time: 72 h
How it was run: (§1)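 Plates with 384 wells held compound at 5 concentrations in 10-fold steps over a 10,000-fold range specific to each compound. Breast cancer cell lines were added in 20 µl suspension and incubated 72 h, then read for CellTox Green and CellTiter-Glo signals, with each plate normalised to 0.1 % DMSO and a positive kill control. The drug sensitivity score is based on the area under the fitted dose-response curve.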

MCF-10A = assay: as above; conditions: incubation time: 72 h
How it was run: as §1

CAL-85-1 [1] = assay: as above; conditions: incubation time: 72 h
How it was run: as §1

Hs578T = assay: as above; conditions: incubation time: 72 h
How it was run: as §1

MDA-MB-453 [2] = assay: as above; conditions: incubation time: 72 h
How it was run: as §1

DU-4475 [3] = assay: as above; conditions: incubation time: 72 h
How it was run: as §1

MDA-MB-468 = assay: as above; conditions: incubation time: 72 h
How it was run: as §1

CAL-120 = assay: as above; conditions: incubation time: 72 h
How it was run: as §1

HCC1599 = assay: as above; conditions: incubation time: 72 h
How it was run: as §1

MFM-223 = assay: as above; conditions: incubation time: 72 h
How it was run: as §1

CAL-51 [4] = assay: as above; conditions: incubation time: 72 h
How it was run: as §1

MDA-MB-436 = assay: as above; conditions: incubation time: 72 h
How it was run: as §1

HDQ-P1 [5] = assay: as above; conditions: incubation time: 72 h
How it was run: as §1

HCC1937 = assay: as above; conditions: incubation time: 72 h
How it was run: as §1

MDA-MB-231 = assay: as above; conditions: incubation time: 72 h
How it was run: as §1

BT-549 = assay: as above; conditions: incubation time: 72 h
How it was run: as §1

HCC1143 = assay: as above; conditions: incubation time: 72 h
How it was run: as §1

CAL-148 [6] = assay: as above; conditions: incubation time: 72 h
How it was run: as §1

CAL-51 [7] = assay: normalised viability (% of control), CellTiter-Blue; higher = more viable cells (about 100 = DMSO control); conditions: 3000 nM; incubation time: 72 h
Experimental: (§2)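 DSRT, CellTiter-Blue viability, 72 h incubation. Signal is normalised to DMSO and benzethonium chloride controls. Value is the normalised response at dose 8.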

HDQ-P1 [8] = assay: as above; conditions: 3000 nM; incubation time: 72 h
Experimental: as §2

CAL-85-1 [9] = assay: as above; conditions: 300 nM; incubation time: 72 h
Experimental: (§3)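 DSRT, CellTiter-Blue viability, 72 h incubation. Signal is normalised to DMSO and benzethonium chloride controls. Value is the normalised response at dose 6.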

MDA-MB-453 [10] = assay: as above; conditions: 300 nM; incubation time: 72 h
Experimental: as §3

DU-4475 [11] = assay: as above; conditions: 300 nM; incubation time: 72 h
Experimental: as §3

CAL-51 [12] = assay: as above; conditions: 300 nM; incubation time: 72 h
Experimental: as §3

HDQ-P1 [13] = assay: as above; conditions: 300 nM; incubation time: 72 h
Experimental: as §3

CAL-148 [14] = assay: as above; conditions: 300 nM; incubation time: 72 h
Experimental: as §3

C[C@H]1C[C@@H]2[C@H]([C@@H](O)C[C@@]3(C)[C@H]2CC[C@]3(O)C(=O)CO)[C@@]2(C)C=CC(=O)C=C12 [Methylprednisolone]
drug sensitivity score (BT-474): 0
drug sensitivity score (MCF-10A): 0
drug sensitivity score (CAL-85-1 [1]): 0
drug sensitivity score (Hs578T): 0
drug sensitivity score (MDA-MB-453 [2]): 0
drug sensitivity score (DU-4475 [3]): 0
drug sensitivity score (MDA-MB-468): 0
drug sensitivity score (CAL-120): 0
drug sensitivity score (HCC1599): 0
drug sensitivity score (MFM-223): 0
drug sensitivity score (CAL-51 [4]): 0
drug sensitivity score (MDA-MB-436): 0
drug sensitivity score (HDQ-P1 [5]): 0
drug sensitivity score (HCC1937): 0
drug sensitivity score (MDA-MB-231): 0
drug sensitivity score (BT-549): 0
drug sensitivity score (HCC1143): 0
drug sensitivity score (CAL-148 [6]): 0
normalised viability (CAL-51 [7]): 105%
normalised viability (HDQ-P1 [8]): 105%
normalised viability (CAL-85-1 [9]): 112%
normalised viability (MDA-MB-453 [10]): 83.3%
normalised viability (DU-4475 [11]): 100%
normalised viability (CAL-51 [12]): 105%
normalised viability (HDQ-P1 [13]): 74.6%
normalised viability (CAL-148 [14]): 104%

Nc1nc2[nH]cc(CCc3ccc(C(=O)N[C@@H](CCC(=O)O)C(=O)O)cc3)c2c(=O)[nH]1 [Pemetrexed]
drug sensitivity score (BT-474): 0
drug sensitivity score (MCF-10A): 0.385
drug sensitivity score (CAL-85-1 [1]): 0
drug sensitivity score (Hs578T): 0.581
drug sensitivity score (MDA-MB-453 [2]): 0
drug sensitivity score (DU-4475 [3]): 0
drug sensitivity score (MDA-MB-468): 1.29
drug sensitivity score (CAL-120): 0
drug sensitivity score (HCC1599): 0
drug sensitivity score (MFM-223): 0
drug sensitivity score (CAL-51 [4]): 0
drug sensitivity score (MDA-MB-436): 0
drug sensitivity score (HDQ-P1 [5]): 0
drug sensitivity score (HCC1937): 0
drug sensitivity score (MDA-MB-231): 2.43
drug sensitivity score (BT-549): 0
drug sensitivity score (HCC1143): 0
drug sensitivity score (CAL-148 [6]): 0
normalised viability (CAL-51 [7]): 109%
normalised viability (HDQ-P1 [8]): 109%
normalised viability (CAL-85-1 [9]): 107%
normalised viability (MDA-MB-453 [10]): 102%
normalised viability (DU-4475 [11]): 93.6%
normalised viability (CAL-51 [12]): 110%
normalised viability (HDQ-P1 [13]): 83.7%
normalised viability (CAL-148 [14]): 106%

CC1=C(/C=C/C(C)=C/C=C/C(C)=C/C(=O)O)C(C)(C)CCC1 [Tretinoin]
drug sensitivity score (BT-474): 0.87
drug sensitivity score (MCF-10A): 1.81
drug sensitivity score (CAL-85-1 [1]): 1.14
drug sensitivity score (Hs578T): 7.23
drug sensitivity score (MDA-MB-453 [2]): 0
drug sensitivity score (DU-4475 [3]): 0
drug sensitivity score (MDA-MB-468): 0
drug sensitivity score (CAL-120): 0
drug sensitivity score (HCC1599): 0
drug sensitivity score (MFM-223): 0
drug sensitivity score (CAL-51 [4]): 0
drug sensitivity score (MDA-MB-436): 0
drug sensitivity score (HDQ-P1 [5]): 0
drug sensitivity score (HCC1937): 0
drug sensitivity score (MDA-MB-231): 3.64
drug sensitivity score (BT-549): 0
drug sensitivity score (HCC1143): 0
drug sensitivity score (CAL-148 [6]): 0
normalised viability (CAL-51 [7]): 90.8%
normalised viability (HDQ-P1 [8]): 121%
normalised viability (CAL-85-1 [9]): 96.6%
normalised viability (MDA-MB-453 [10]): 91.5%
normalised viability (DU-4475 [11]): 91.1%
normalised viability (CAL-51 [12]): 96.2%
normalised viability (HDQ-P1 [13]): 94.9%
normalised viability (CAL-148 [14]): 74%

Oc1ncc(N(CCCl)CCCl)c(O)n1 [Uracil mustard]
drug sensitivity score (BT-474): 0
drug sensitivity score (MCF-10A): 0
drug sensitivity score (CAL-85-1 [1]): 0
drug sensitivity score (Hs578T): 0
drug sensitivity score (MDA-MB-453 [2]): 0
drug sensitivity score (DU-4475 [3]): 0
drug sensitivity score (MDA-MB-468): 0
drug sensitivity score (CAL-120): 0
drug sensitivity score (HCC1599): 0
drug sensitivity score (MFM-223): 0
drug sensitivity score (CAL-51 [4]): 0
drug sensitivity score (MDA-MB-436): 0
drug sensitivity score (HDQ-P1 [5]): 0
drug sensitivity score (HCC1937): 0
drug sensitivity score (MDA-MB-231): 0
drug sensitivity score (BT-549): 0
drug sensitivity score (HCC1143): 0
drug sensitivity score (CAL-148 [6]): 0
normalised viability (CAL-51 [7]): 99.6%
normalised viability (HDQ-P1 [8]): 115%
normalised viability (CAL-85-1 [9]): 93.1%
normalised viability (MDA-MB-453 [10]): 104%
normalised viability (DU-4475 [11]): 80.8%
normalised viability (CAL-51 [12]): 96.4%
normalised viability (HDQ-P1 [13]): 94.8%
normalised viability (CAL-148 [14]): 89.7%

CCCCC(=O)OCC(=O)[C@]1(O)Cc2c(O)c3c(c(O)c2[C@@H](O[C@H]2C[C@H](NC(=O)C(F)(F)F)[C@H](O)[C@H](C)O2)C1)C(=O)c1c(OC)cccc1C3=O [Valrubicin]
drug sensitivity score (BT-474): 0
drug sensitivity score (MCF-10A): 0
drug sensitivity score (CAL-85-1 [1]): 0
drug sensitivity score (Hs578T): 0.113
drug sensitivity score (MDA-MB-453 [2]): 0
drug sensitivity score (DU-4475 [3]): 0
drug sensitivity score (MDA-MB-468): 5.83
drug sensitivity score (CAL-120): 0.113
drug sensitivity score (HCC1599): 0
drug sensitivity score (MFM-223): 0
drug sensitivity score (CAL-51 [4]): 8.29
drug sensitivity score (MDA-MB-436): 3.14
drug sensitivity score (HDQ-P1 [5]): 0
drug sensitivity score (HCC1937): 0
drug sensitivity score (MDA-MB-231): 0
drug sensitivity score (BT-549): 0
drug sensitivity score (HCC1143): 0
drug sensitivity score (CAL-148 [6]): 10.8
normalised viability (CAL-51 [7]): 6.83%
normalised viability (HDQ-P1 [8]): 45.8%
normalised viability (CAL-85-1 [9]): 75.1%
normalised viability (MDA-MB-453 [10]): 73.9%
normalised viability (DU-4475 [11]): 23.4%
normalised viability (CAL-51 [12]): 34.5%
normalised viability (HDQ-P1 [13]): 72%
normalised viability (CAL-148 [14]): 35.5%

CCCS(=O)(=O)Nc1ccc(F)c(C(=O)c2c[nH]c3ncc(-c4ccc(Cl)cc4)cc23)c1F [Vemurafenib]
drug sensitivity score (BT-474): 0
drug sensitivity score (MCF-10A): 2.59
drug sensitivity score (CAL-85-1 [1]): 0
drug sensitivity score (Hs578T): 0
drug sensitivity score (MDA-MB-453 [2]): 0
drug sensitivity score (DU-4475 [3]): 1.82
drug sensitivity score (MDA-MB-468): 0
drug sensitivity score (CAL-120): 0
drug sensitivity score (HCC1599): 0
drug sensitivity score (MFM-223): 0
drug sensitivity score (CAL-51 [4]): 8.51
drug sensitivity score (MDA-MB-436): 0
drug sensitivity score (HDQ-P1 [5]): 0
drug sensitivity score (HCC1937): 0
drug sensitivity score (MDA-MB-231): 0.329
drug sensitivity score (BT-549): 0
drug sensitivity score (HCC1143): 0
drug sensitivity score (CAL-148 [6]): 0
normalised viability (CAL-51 [7]): 107%
normalised viability (HDQ-P1 [8]): 83.1%
normalised viability (CAL-85-1 [9]): 87.4%
normalised viability (MDA-MB-453 [10]): 88.7%
normalised viability (DU-4475 [11]): 55.1%
normalised viability (CAL-51 [12]): 96.5%
normalised viability (HDQ-P1 [13]): 74.4%
normalised viability (CAL-148 [14]): 90.3%
